{"source": "patent US9763911B2", "about": "“Prostacyclin compositions for regulation of fracture repair and bone formation” (MAYO FOUNDATION FOR MEDICAL EDUCATION AND RESEARCH, priority 2013, dated 2017)", "key": {"[1]": {"test_system": "β-catenin in KO OC clone 8 cells", "assay": "Activated β-catenin protein in Sost KO clonal osteocytes treated with Wnt inhibitor (immunoblot)", "format": "cell-based, mouse", "conditions": "KO OC 8 cells, treatment for 48 hours, vs vehicle, P<0.05 (FIG. 7A)", "protocol": "(§1) FIGS. 7A and 7B show inhibition of Wnt secretion with C-59 reduces intra-cellular activated β-catenin concentrations and 6-keto PGF1α concentrations. […] KO OC clone 8 cells were treated with a Wnt inhibitor, C-59 (2-(4-(2-methylpyridin-4-yl)phenyl)-N-(4(pyridine-3-yl)phenyl)acetamide) to assess the functional importance of β-catenin signaling in sclerostin-mediated increases in PGI2 synthesis.\nWells in a 6-well collagen treated plate were seeded with 0.2×10^6 sclerostin knock-out osteocytes (Clone KO8). After 48 hours, normal growth medium was removed, and cells were rinsed with PBS. Serum-free media was then added (α-MEM, 1% P/S) to the osteocytes as was well as either 100 nM of the small molecule Wnt inhibitor, C59 (2-(4-(2-methylpyridin-4-yl)phenyl)-N-(4-(pyridine-3-yl)phenyl) acetamide), or a vehicle control. After a 48 hour incubation, media was harvested from both vehicle and experimental wells and assayed for 6-keto prostaglandin F1α.\nCell lysates from 6- or 12-well plates were prepared by scraping cells in lysis buffer (0.1% SDS, 150 mM NaCl, 2 mM sodium vanadate, 0.5% sodium deoxycholate, 1% NP-40 50 mM Tris pH 8.2, 1 mM EDTA with one mini-complete protease inhibitor cocktail EDTA-free tab (Roche Diagnostics, Indianapolis, Ind.)) per 7 ml lysis solution or by direct addition of 1×SDS sample containing 5 mM EDTA and protease inhibitor as above. […]"}, "[2]": {"test_system": "6-keto PGF1α (PGI2 synthesis) in KO OC clone 8 cells", "assay": "6-keto PGF1α in culture medium of treated Sost KO clonal osteocytes (EIA)", "format": "cell-based, mouse", "conditions": "100 nM C59, 48 h, vehicle 274.964±6.006 pg/mL, P=0.012 (FIG. 7B)", "protocol": "as §1\nAll prostaglandin metabolite measurements were performed by enzyme immunoassay (EIA) using kits from Cayman Chemical (Ann Arbor, Mich.). 6-Keto prostaglandin Flα (Catalog Number 515211), prostaglandin E2 (Catalog Number 514010), Prostaglandin E Metabolite (Catalog Number 514531), prostaglandin F2α (Catalog Number 516011), prostaglandin D2 (Catalog Number 512031), and thromboxane B2 (Catalog Number 519031) were all performed according to kit instructions. Culture medium was diluted 1:2 in supplied buffer for each metabolite measurement, solubilized bone proteins were diluted 1:100 in supplied buffer for each metabolite measurement, and urine was diluted 1:500 in supplied buffer for each metabolite measurement.\nWells in a 6-well collagen treated plate were seeded with 0.2×10^6 sclerostin knock-out osteocytes (Clone KO8). After 48 hours, normal growth medium was removed, and cells were rinsed with PBS. […]"}}, "data": [{"smiles": "Cc1cc(-c2ccc(CC(=O)Nc3ccc(-c4cccnc4)cc3)cc2)ccn1", "note": "[C59, 2-(4-(2-methylpyridin-4-yl)phenyl)-N-(4(pyridine-3-yl)phenyl)acetamide]", "values": [{"measurement": "β-catenin protein concentration in cells", "setting": "[1]", "result": "statistically significant decrease"}, {"measurement": "6-keto PGF1α in culture medium", "setting": "[2]", "result": "536.409 ± 60.690", "unit": "pg/mL"}]}]}
